Laboratory results: patent US11608323B2 (SYNGENTA LIMITED, priority 2013, dated 2023)

Assays:
Format in all cases: in vivo
[1] = test system: ABUTH; experiment: Pre-emergence herbicidal activity, glasshouse pot test; conditions: rate 1000 g/Ha, evaluated after 13 days, scale 0-5
Summary of the method: (§1)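 Compounds are applied pre-emergence as an aqueous spray, formulated in 50:50 acetone/water containing 0.5% Tween 20, to pots sown one day earlier. Plants grow in a controlled glasshouse and are scored 13 days later for damage from 0 to 5.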

[2] = test system: ALOMY; experiment: as above; conditions: rate 1000 g/Ha, evaluated after 13 days, scale 0-5
Summary of the method: as §1

[3] = test system: AMARE; experiment: as above; conditions: rate 1000 g/Ha, evaluated after 13 days, scale 0-5
Summary of the method: as §1

[4] = test system: ECHCG; experiment: as above; conditions: rate 1000 g/Ha, evaluated after 13 days, scale 0-5
Summary of the method: as §1

[5] = test system: SETFA; experiment: as above; conditions: rate 1000 g/Ha, evaluated after 13 days, scale 0-5
Summary of the method: as §1

[6] = test system: ZEAMX; experiment: as above; conditions: rate 1000 g/Ha, evaluated after 13 days, scale 0-5
Summary of the method: as §1

[7] = test system: ABUTH; experiment: Post-emergence herbicidal activity, glasshouse pot test; conditions: Abutilon theophrasti; application post-emergence; rate 1000 g/Ha; evaluated after 13 days
Summary of the method: (§2)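 Damage rating 0 (none) to 5 (total), assessed 13 days after spraying. Plants received the compound in acetone/water 50:50 with 0.5% Tween 20 at 8 days post-sowing, then were kept at 24/16 °C, 14 h photoperiod, 65% RH.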

[8] = test system: ALOMY; experiment: as above; conditions: Alopecurus myosuroides; application post-emergence; rate 1000 g/Ha; evaluated after 13 days
Summary of the method: as §2

[9] = test system: AMARE; experiment: as above; conditions: Amaranthus retroflexus; application post-emergence; rate 1000 g/Ha; evaluated after 13 days
Summary of the method: as §2

[10] = test system: ECHCG; experiment: as above; conditions: Echinochloa crus-galli; application post-emergence; rate 1000 g/Ha; evaluated after 13 days
Summary of the method: as §2

[11] = test system: SETFA; experiment: as above; conditions: Setaria faberi; application post-emergence; rate 1000 g/Ha; evaluated after 13 days
Summary of the method: as §2

[12] = test system: ZEAMX; experiment: as above; conditions: Zea mays; application post-emergence; rate 1000 g/Ha; evaluated after 13 days
Summary of the method: as §2

C[C@H]1C(O)N(c2cc(C(F)(F)F)ccn2)C(=O)N1C (mixture of isomers) [Compound A37, (4R,5S)-4-hydroxy-1,5-dimethyl-3-[4-(trifluoromethyl)-2-pyridyl]imidazolidin-2-one and (4S,5S)-4-hydroxy-1,5-dimethyl-3-[4-(trifluoromethyl)-2-pyridyl]imidazolidin-2-one]
5: ABUTH damage score, application pre-emergence [1] | AMARE damage score, application pre-emergence [3] | ECHCG damage score, application pre-emergence [4] | Post-emergence herbicidal activity ABUTH (damage score 0-5) [7] | Post-emergence herbicidal activity ALOMY (damage score 0-5) [8] | Post-emergence herbicidal activity AMARE (damage score 0-5) [9] | Post-emergence herbicidal activity ECHCG (damage score 0-5) [10] | Post-emergence herbicidal activity SETFA (damage score 0-5) [11]
4: ALOMY damage score, application pre-emergence [2] | SETFA damage score, application pre-emergence [5] | Post-emergence herbicidal activity ZEAMX (damage score 0-5) [12]
3: ZEAMX damage score, application pre-emergence [6]
